In publication PMC12378621, “Benzo-ring modification on Malaria Box hit MMV008138: effects on antimalarial potency and microsomal stability” (RSC Medicinal Chemistry, 2025):
“And” between values parts separate entries of the source, which are not always exact repeats. Identical values can stand only once. Like-named read-outs stand apart in the source and are kept apart here.

How the values were obtained:
[1] = tested on: P. falciparum (Dd2 strain); test: ABS P. falciparum growth inhibition, SYBR Green I assay, 72 h endpoint; type: cell-based, Plasmodium falciparum; conditions: Plasmodium falciparum, DD2; control in growth inhibition / IPP rescue assays; read-out: EC50 of MMV008138 used as control
in vitro = conditions: male, mouse, microsomes
Method: Metabolic stability of 1 was studied in pooled male mouse liver microsomes (final concentration 0.5 mg/mL, 5 mM MgCl 2, 100 mM phosphate buffer). The final concentration of test […]
The mixture was pre-warmed 37°C for 5 min before addition of 50 μL of 10 mM NADPH solution at the final concentration of 1 mM and carried out at 37°C. 50 μL of ultra-pure H2O was used instead of NADPH solution in the […]
negative control. […] Drug […]
concentrations were determined using triple quad LC-MS (Table S5).
(§1) (1 picture or pasted object on this page, not shown here)

in vivo = conditions: mouse
Method: 3. Pharmacokinetics of 1 in mice
Pharmacokinetic analysis of 1 in mice was performed by Pharmaron (Beijing, China). Three mice each (23 ± 1 g) were used for oral (40 mg/kg, gavage, conscious) and for IV (10 mg/kg, lateral tail vein with anesthesia) administration. The vehicle for both routes wa s 20% DMSO, 60% PEG400 and 20% SBE-β-CD (30% w/v) in water. Stock concentrations were 4 mg/mL (both oral and IV respectively), and mice were dosed at 10.0 and 2.5 mL/kg (oral and IV respectively).
Quantitation was performed by triple-quad LC-MS.

[2] = tested on: Plasmodium berghei ANKA expressing luciferase (PbGFP-Luccon); test: In vivo efficacy in P. berghei-infected mice (luminescence on Day 7)
Method: 2. In vivo efficacy studies of 1 (NYU) in P. berghei-infected mice (po and iv) Efficacy of 1 in P. berghei-infected mice was assessed at the Anti-Infectives Core Facility, Department of Microbiology, Grossman School of Medicine, New York University.
A. Oral Administration Protocol
Three groups of five female Swiss Webster mice weighing 25 to 30 g were used for vehicle […]
berghei ANKA expressing luciferase (PbGFP-Luccon) obtained from a donor infected mouse.10 […]
2 to 6 and imaged on day 7.
Figure S1. Dosing and imaging timeline of P. berghei-infected mice. […]
Day 7 as described in the text.
The vehicle for all groups was 0.5% (hydroxypropyl)methyl cellulose, 0.5% Tween-80.
For the surviving mice, o n day 7 after infection, mice were anesthetized by inhalation of isofluorane and injected via i.p. with 150 mg/kg of luciferase substrate dissolved in PBS (D-Luciferin Potassium Salt , Gold Biotechnology ).
Mice were imaged 5 to 10 min after inj ection of luciferin using an IVIS imager (Lumina II In Vivo Imaging System; Perkin -Elmer). The data acquisition and analysis were performed with LivingImage (Xenogen). Accumulated light intensity was measured in each mouse to determine the baseline infection levels before treatment .
as §1
B. IV Administration Protocol
One group of four female Swiss Webster mice weighing 25 to 30 g were used for vehicle control, and groups of five mice were used for 1 treatment (IV, 2 x 30 mg/kg/d) and the positive […]
On Day 0, mice were infected via intraperitoneal (i.p.) […]
from a donor infected mouse. 10 As shown below in Figure S2 (and legend), mice were treated […]
Figure S2. Dosing and imaging timeline of P. berghei-infected mice. Vehicle and 1 (30 mpk) treatments were administered IV twice -daily on Days 2-6. […]
administered i .p. once-daily. Mice were imaged on Day 7, as described in the text.
The vehicle for this study was 30%PEG, 40% Captisol (30%w/v solution).
Table S2. Luminescence Data after background subtraction for IV dosing of Vehicle, 1, and IP […]
Table S9. Concentration of 20c vs time in mice. […]
Figure S6. Dosing and imaging timeline of P. berghei-infected mice. […]

[3] = tested on: P. falciparum (Dd2 strain); conditions: SYBR Green I, 72 h endpoint; previously reported; read-out: Dd2 strain P. falciparum growth inhibition EC50; cited from earlier work
[4] = tested on: P. falciparum (Dd2 strain); set-up: method as in PMID 25754494; conditions: drug at 2.5 μM; previously reported; cited from earlier work
P. falciparum IspD = tested on: P. falciparum IspD; set-up: method as in PMID 26783558; conditions: cited from earlier work
P. vivax IspD = tested on: P. vivax IspD; set-up: method as in PMID 26783558; conditions: cited from earlier work
[5] = iv, 10 mg/kg, plasma concentration
[6] = po, 40 mg/kg, plasma concentration
[7] = Table S2, Days 2-6, imaged Day 7, Cmpd 1 30 mg/kg 2 x daily IV, CQ 20 mg/kg 1 x daily i.p.

O=C(O)[C@@H]1Cc2c([nH]c3ccccc23)[C@@H](c2ccc(Cl)cc2Cl)N1 [Compound 1, reference compound]
EC50 [1]: 170 ± 10 nM
half-life at 1 µM (in vitro): ~0.167 h
% remaining at 60 min (in vitro; 1 h, 1 µM): 103.9%
AUC(0-inf) (in vivo; iv, 10 mg/kg): 38.4 ± 3.8 µM·h
AUC(0-t) (in vivo; iv, 10 mg/kg): 36.1 ± 3.6 µM·h
C0 (in vivo; iv, 10 mg/kg): 86 ± 6.6 µM
Vd (in vivo; iv, 10 mg/kg): 3.5 ± 0.43 L/kg
clearance (in vivo; iv, 10 mg/kg): 12.1 ± 1.3 mL/min/kg
tlast (in vivo; iv, 10 mg/kg): 24 h
concentration at 24 h (in vivo; iv, 10 mg/kg, Cmin): 0.164 ± 0.017 µM
concentration at 0.083 h (in vivo; [5]): 58.6 ± 5.5 µM
concentration at 0.25 h (in vivo; [5]): 27.1 ± 3.7 µM
concentration at 0.5 h (in vivo; [5]): 14.8 ± 1.9 µM
concentration at 1 h (in vivo; [5]): 4.8 ± 1.7 µM
concentration at 2 h (in vivo; [5]): 1.3 ± 0.4 µM
concentration at 4 h (in vivo; [5]): 0.66 ± 0.04 µM
concentration at 8 h (in vivo; [5]): 0.51 ± 0.03 µM
concentration at 24 h (in vivo; [5]): 0.16 ± 0.02 µM
half-life (in vivo; iv, 10 mg/kg, t1/2): 9.9 ± 4 h
AUC0-inf (in vivo; po, 40 mg/kg): 88 µM·h
AUC(0-inf) (in vivo; po, 40 mg/kg): 88 ± 15 µM·h
AUC(0-t) (in vivo; po, 40 mg/kg): 79 ± 8.9 µM·h
Cmax (in vivo; po, 40 mg/kg): 46.1 ± 7.3 µM
Tmax (in vivo; po, 40 mg/kg): 0.25 h
tlast (in vivo; po, 40 mg/kg): 24 h
bioavailability (in vivo; po, 40 mg/kg, % F): 57%
bioavailability (in vivo; po, 40 mg/kg, %F): 57 ± 10%
concentration at 24 h (in vivo; po, 40 mg/kg, Cmin): 0.65 ± 0.35 µM
concentration at 0.25 h (in vivo; [6]): 46.1 ± 8 µM
concentration at 0.5 h (in vivo; [6]): 28.2 ± 4.1 µM
concentration at 1 h (in vivo; [6]): 12.7 ± 2.7 µM
concentration at 2 h (in vivo; [6]): 5.4 ± 0.31 µM
concentration at 4 h (in vivo; [6]): 3.2 ± 0.25 µM
concentration at 8 h (in vivo; [6]): 2.4 ± 0.45 µM
concentration at 24 h (in vivo; [6]): 0.64 ± 0.35 µM
half-life (in vivo; po, 40 mg/kg, t 1/2): 8.5 h
half-life (in vivo; po, 40 mg/kg, t1/2): 8.5 ± 0.24 h
reduction in parasitemia ([2]; P. berghei mouse model, IV dosing): no reduction in parasitemia
reduction in parasitemia / efficacy ([2]; P. berghei mouse model, oral dosing (20c 5 × 40 mg per kg per day)): no reduction in parasitemia
Live/Dead and luminescence, individual mice ([2]; Table S1, oral 1 x daily Days 2-6, imaged Day 7, Cmpd 1 45 mg/kg, CQ 20 mg/kg): Dead by Day 6 and Dead by Day 7 and 1.33E+06
Luminescence after background subtraction AVG [2, 7]: 1.39E+06
Luminescence after background subtraction, individual mice [2, 7]: 9.49E+05 and 1.50E+06 and 1.72E+06 and 2.00E+06 and 7.68E+05
treated mice dead by Day 7 (of 5) ([2]; oral 45 mg/kg/d Days 2-6): 4
EC50 [3]: 250 ± 70 nM
% recovery (200 μM IPP) [4]: 100%@2.5 μM ^c
IC50 (P. falciparum IspD): 47 nM
IC50 (P. vivax IspD): 310 nM
